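A five-concentration, 48-hour dose response in 96-well plates underlies each endpoint, interpolated linearly between surrounding concentrations. GI50: concentration for 50% inhibition of growth. TGI: total growth inhibition.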
How the values were obtained:
Test in all cases: NCI-60 cell line screen, 48 h
SW-620 colon = system: SW-620 colon
SK-MEL-28 melanoma = system: SK-MEL-28 melanoma
SR leukemia = system: SR leukemia
SNB-75 CNS = system: SNB-75 CNS
M14 melanoma = system: M14 melanoma
SN12C renal = system: SN12C renal
MDA-N = system: MDA-N
SF-295 CNS = system: SF-295 CNS
A549 NSCLC = system: A549 NSCLC
HCT-116 colon = system: HCT-116 colon

## CCN1CCN(Cc2ccc(NC(=O)Nc3ccc(-n4ccc5c(NC(=O)c6ccccc6)nccc54)cc3)cc2C(F)(F)F)CC1
SW-620 colon
  GI50: 0.513 µM
  TGI: 1.7 µM
SK-MEL-28 melanoma
  GI50: 1.62 µM
  TGI: 3.07 µM
SR leukemia
  GI50: 0.159 µM
  TGI: > 100 µM
SNB-75 CNS
  GI50: 1.37 µM
  TGI: 2.68 µM
M14 melanoma
  GI50: 1.12 µM
  TGI: 2.39 µM
SN12C renal
  GI50: 3.17 µM
  TGI: > 20.7 µM

## Clc1ccc(OCc2nnc(COc3ccc(OCc4nnc(COc5ccc(Cl)cc5Cl)o4)c(Cl)c3)o2)c(Cl)c1
MDA-N
  TGI: > 100 µM
SW-620 colon
  TGI: > 100 µM
SK-MEL-28 melanoma
  TGI: > 100 µM
SF-295 CNS
  TGI: > 100 µM
A549 NSCLC
  TGI: > 100 µM
HCT-116 colon
  TGI: > 100 µM
SR leukemia
  TGI: 36.6 µM
M14 melanoma
  TGI: > 100 µM
SN12C renal
  TGI: > 100 µM

## C[N+]1(CCN=C=NC2CCCCC2)CCOCC1
SW-620 colon
  TGI: > 100 µM
SK-MEL-28 melanoma
  TGI: > 100 µM
SF-295 CNS
  TGI: > 100 µM
A549 NSCLC
  TGI: > 100 µM
HCT-116 colon
  TGI: > 100 µM
SR leukemia
  TGI: > 100 µM
SNB-75 CNS
  TGI: > 100 µM
M14 melanoma
  TGI: > 100 µM
SN12C renal
  TGI: > 100 µM

## COc1ccc(OC/C(N=Cc2ccncc2)=N/NC(=O)c2ccncc2)cc1
MDA-N
  TGI: 39.8 µM
SW-620 colon
  TGI: > 100 µM
SK-MEL-28 melanoma
  TGI: > 100 µM
SF-295 CNS
  TGI: > 100 µM
A549 NSCLC
  TGI: > 100 µM
HCT-116 colon
  TGI: > 100 µM
M14 melanoma
  TGI: > 100 µM
SN12C renal
  TGI: > 100 µM

## O=P1(C(O)/C=C/c2ccccc2)N(Cc2ccccc2)[C@@H]2CCCC[C@H]2N1Cc1ccccc1 (some centres undefined)
MDA-N
  TGI: 18.2 µM
SW-620 colon
  TGI: 33.3 µM
SK-MEL-28 melanoma
  TGI: 28.1 µM
SF-295 CNS
  TGI: 26.8 µM
A549 NSCLC
  TGI: 43 µM
HCT-116 colon
  TGI: 14 µM
SNB-75 CNS
  TGI: 54.5 µM
M14 melanoma
  TGI: 19.8 µM
SN12C renal
  TGI: 11.6 µM

## Cc1ccc2c(c1C)CC1(Cc3c(C)ccc(C)c3C1=O)C2=O (centres undefined)
MDA-N
  TGI: > 100 µM
SW-620 colon
  TGI: > 100 µM
SK-MEL-28 melanoma
  TGI: > 100 µM
SF-295 CNS
  TGI: > 100 µM
A549 NSCLC
  TGI: > 100 µM
HCT-116 colon
  TGI: > 100 µM
SNB-75 CNS
  TGI: > 100 µM
M14 melanoma
  TGI: > 100 µM
SN12C renal
  TGI: > 100 µM

## N#Cc1nc(CCCN2C(=O)c3ccccc3C2=O)oc1N
MDA-N
  TGI: > 100 µM
SW-620 colon
  TGI: > 100 µM
SK-MEL-28 melanoma
  TGI: > 100 µM
SF-295 CNS
  TGI: > 100 µM
A549 NSCLC
  TGI: > 100 µM
HCT-116 colon
  TGI: > 100 µM
SR leukemia
  TGI: > 100 µM
M14 melanoma
  TGI: > 100 µM
SN12C renal
  TGI: > 100 µM

## Cn1c2c(c3ccccc31)CCN1C(=O)C34CCCC3CC21S4 (centres undefined)
MDA-N
  TGI: > 100 µM
SW-620 colon
  TGI: > 100 µM
SK-MEL-28 melanoma
  TGI: > 100 µM
SF-295 CNS
  TGI: > 100 µM
A549 NSCLC
  TGI: > 100 µM
HCT-116 colon
  TGI: > 100 µM
SR leukemia
  TGI: > 100 µM
M14 melanoma
  TGI: > 100 µM
SN12C renal
  TGI: > 100 µM

## O=P(OCc1ccccc1)(OCc1ccccc1)C(O)/C=C/c1ccccc1 (centres undefined)
MDA-N
  TGI: 36 µM
SW-620 colon
  TGI: 68.3 µM
SK-MEL-28 melanoma
  TGI: > 100 µM
SF-295 CNS
  TGI: 49.4 µM
A549 NSCLC
  TGI: > 100 µM
HCT-116 colon
  TGI: 39.8 µM
SR leukemia
  TGI: 50.7 µM
M14 melanoma
  TGI: 37 µM
SN12C renal
  TGI: 39 µM

## NC(Cc1[nH]nc2ccccc12)C(=O)O (centres undefined)
SW-620 colon
  TGI: > 100 µM
SK-MEL-28 melanoma
  TGI: > 100 µM
SF-295 CNS
  TGI: > 100 µM
A549 NSCLC
  TGI: > 100 µM
HCT-116 colon
  TGI: > 100 µM
SR leukemia
  TGI: > 100 µM
SNB-75 CNS
  TGI: > 100 µM
M14 melanoma
  TGI: > 100 µM
SN12C renal
  TGI: > 100 µM

## Nc1c(S(N)(=O)=O)cc(S(N)(=O)=O)cc1S(N)(=O)=O
MDA-N
  TGI: > 100 µM
SW-620 colon
  TGI: > 100 µM
SK-MEL-28 melanoma
  TGI: > 100 µM
SF-295 CNS
  TGI: > 100 µM
A549 NSCLC
  TGI: > 100 µM
HCT-116 colon
  TGI: > 100 µM
SNB-75 CNS
  TGI: > 100 µM
M14 melanoma
  TGI: > 100 µM
SN12C renal
  TGI: > 100 µM

## CC1(C)N=C(N)N=C(N)N1c1cccc(OCc2cccc(N)c2)c1
MDA-N
  TGI: > 100 µM
SW-620 colon
  TGI: > 100 µM
SK-MEL-28 melanoma
  TGI: > 100 µM
SF-295 CNS
  TGI: > 100 µM
A549 NSCLC
  TGI: > 100 µM
HCT-116 colon
  TGI: > 100 µM
SNB-75 CNS
  TGI: > 100 µM
M14 melanoma
  TGI: > 100 µM
SN12C renal
  TGI: > 100 µM

## Oc1c(OCc2nnc(CCCCCCCCc3nnc(COc4ccc5ccccc5c4O)o3)o2)ccc2ccccc12
MDA-N
  TGI: > 100 µM
SW-620 colon
  TGI: > 100 µM
SK-MEL-28 melanoma
  TGI: > 100 µM
SF-295 CNS
  TGI: > 100 µM
A549 NSCLC
  TGI: > 100 µM
HCT-116 colon
  TGI: 35.6 µM
SNB-75 CNS
  TGI: > 100 µM
M14 melanoma
  TGI: > 100 µM
SN12C renal
  TGI: > 100 µM

## COc1ccc(C2=C(Cl)C(=O)O/C2=C\c2ccc(OC)c(Br)c2)cc1Cl
MDA-N
  TGI: > 100 µM
SW-620 colon
  TGI: > 100 µM
SK-MEL-28 melanoma
  TGI: > 100 µM
SF-295 CNS
  TGI: 35.1 µM
A549 NSCLC
  TGI: > 100 µM
HCT-116 colon
  TGI: 53.1 µM
SR leukemia
  TGI: > 100 µM
SNB-75 CNS
  TGI: > 100 µM
M14 melanoma
  TGI: > 100 µM

## c1c(N2CCOCC2)ssc1=[N+]1CCOCC1
SW-620 colon
  TGI: > 100 µM
SK-MEL-28 melanoma
  TGI: > 100 µM
SF-295 CNS
  TGI: > 100 µM
A549 NSCLC
  TGI: > 100 µM
HCT-116 colon
  TGI: > 100 µM
SR leukemia
  TGI: > 100 µM
SNB-75 CNS
  TGI: > 100 µM
M14 melanoma
  TGI: > 100 µM
SN12C renal
  TGI: > 100 µM

## CC(=O)OC1CC2(O)C(CCC3(C)C(c4ccc(=O)oc4)CCC32O)C2(C)C1=CC(O)C1OC12 (centres undefined)
SW-620 colon
  TGI: 0.144 µM
SK-MEL-28 melanoma
  TGI: 0.592 µM
SF-295 CNS
  TGI: 0.261 µM
A549 NSCLC
  TGI: 0.0569 µM
HCT-116 colon
  TGI: 0.216 µM
SNB-75 CNS
  TGI: 0.3 µM
SN12C renal
  TGI: 0.882 µM

From PubChem BioAssay (NCI)
